The values that follow come from PubChem BioAssay AID504680 (Sanford-Burnham Center for Chemical Genomics, 2011).

Active and inactive are the calls of the source.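 The calls were made as follows: active = IC50 below 100 µM in the TR-FRET assay, unless also active in the caspase-3 counter assay; inactive = the rest, including compounds also active in caspase-3.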

Chain of Caspase-3 (Homo sapiens) (P42574 whole entry, looked up): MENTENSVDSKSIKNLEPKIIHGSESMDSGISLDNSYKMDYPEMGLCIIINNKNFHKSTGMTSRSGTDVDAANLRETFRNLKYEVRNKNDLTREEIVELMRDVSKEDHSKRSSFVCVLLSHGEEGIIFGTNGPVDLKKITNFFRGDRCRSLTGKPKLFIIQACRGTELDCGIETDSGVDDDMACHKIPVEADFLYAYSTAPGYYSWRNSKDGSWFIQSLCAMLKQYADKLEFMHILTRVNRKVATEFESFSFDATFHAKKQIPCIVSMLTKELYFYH

This assay concerns the target Caspase-3 (Homo sapiens) (UniProt P42574). As to the kind of experiment: inhibition of recombinant caspase-3 activity – biochemical, luminescence, Caspase-Glo 3/7, counter-screen for UBC13 polyubiquitin inhibitor project, SAR follow-up (AID 504680). As to conditions: recombinant caspase-3, Caspase-Glo luminescence, 60 min.
Regarding `O=C(c1ccc(S(=O)(=O)N2CCCC2)cc1)N1CCC(CN2C(=O)c3cccc4cccc(c34)C2=O)CC1`, the IC50 is > 100 µM (inactive).

In the case of `CN(C)CCCn1c(SCC(=O)Nc2nc(-c3cccc(Br)c3)cs2)nc2ccccc2c1=O`, the IC50 was > 100 µM (inactive).

Consider `Cc1ccccc1OCC(O)CN1CCN(CCN2C(=O)c3cccc4cccc(c34)C2=O)CC1` (stereo not drawn), for which the IC50 was > 100 µM (inactive).

For `O=C(CCCCCN1C(=O)c2ccccc2C1=O)NCCc1nc2ccccc2[nH]1`, the IC50 was > 100 µM (inactive).

In the case of `CN(C)CCCN(C(=O)c1ccc(S(=O)(=O)N2CCCC2)cc1)c1nc2ccc(Br)cc2s1`, the IC50 is > 100 µM (inactive).

As for `O=C(CCCCCN1C(=O)c2ccccc2C1=O)N1CCN(c2ccc([N+](=O)[O-])cc2)CC1`, the IC50 is > 100 µM (inactive).

Turning to `O=C(NCC1CCN(Cc2ccc(F)cc2)CC1)C1CCCN(c2ncnc3c2nc2n3CCCCC2)C1` (stereo not drawn), the IC50 is > 100 µM (inactive).

In the case of `O=C(CCCCn1c(=O)c2ccccc2n(Cc2ccccc2F)c1=O)NC1CCN(Cc2ccccc2)CC1`, the IC50 was > 100 µM (inactive).

With `Cc1cc(C)c2sc(N(CCCN(C)C)C(=O)c3ccc(S(=O)(=O)N4CCc5ccccc5C4)cc3)nc2c1`, the IC50 was > 100 µM (inactive).

Consider `Cc1cc(NS(=O)(=O)c2ccc(NC(=O)CCCCCN3C(=O)c4ccccc4C3=O)cc2)nc(C)n1`, for which the IC50 is > 100 µM (inactive).

With `O=C(CCCCn1c(=O)c2ccccc2n(Cc2ccccc2)c1=O)NC1CCN(Cc2ccccc2)CC1`, the IC50 was > 100 µM (inactive).

On to `O=C1c2cccc3cccc(c23)N1Cc1ccc(F)cc1`, for which the IC50 is > 100 µM (inactive).

With `O=C1c2cccc3cccc(c23)C(=O)N1CC1CCN(CC(O)COc2ccc3ccccc3c2)CC1` (stereo not drawn), the IC50 is > 100 µM (inactive).

Take `CCOc1ccc2nc(N(CCCN(C)C)C(=O)c3ccc(C(=O)c4ccccc4)cc3)sc2c1`: the IC50 is > 100 µM (inactive).

As for `CCCCN(CC)S(=O)(=O)c1ccc(C(=O)N(CCCN(C)C)c2nc3cc(C)cc(C)c3s2)cc1`, the IC50 was > 100 µM (inactive).

`O=C1c2cccc3cccc(c23)C(=O)N1CCN1CCN(CC(O)COCc2ccc(Cl)cc2)CC1` (stereo not drawn): the IC50 was > 100 µM (inactive).

As to `COc1ccccc1NC(=S)NC(=O)CCCCCN1C(=O)c2ccccc2C1=O`, the IC50 was > 100 µM (inactive).

As for `O=C1c2cccc3cccc(c23)C(=O)N1CCN1CCN(CC(O)COc2ccccc2)CC1` (stereo not drawn), the IC50 was > 100 µM (inactive).

For the compound `O=C(c1ccco1)N1CCN(C(=O)C2CCN(c3ncnc4c3nc3n4CCCCC3)CC2)CC1`, the IC50 is > 100 µM (inactive).

On to `CC(=O)c1ccccc1OCC(O)CN1CCN(CCN2C(=O)c3cccc4cccc(c34)C2=O)CC1` (stereo not drawn), for which the IC50 was > 100 µM (inactive).

As to `COc1ccc(C(=O)Nn2c(C)nc3ccccc3c2=O)cc1`, the IC50 is > 100 µM (inactive).

For the compound `COc1ccc2sc(N(CCCN(C)C)C(=O)c3ccc(S(=O)(=O)N(C)Cc4ccccc4)cc3)nc2c1`, the IC50 was > 100 µM (inactive).

As to `CNCc1cc(Br)c(OCC(=O)Nc2ccccc2OC)c(OC)c1`, the IC50 is > 100 µM (inactive).

`O=C(C1COc2ccccc2O1)N1CCN(CCN2C(=O)c3cccc4cccc(c34)C2=O)CC1` (stereo not drawn): the IC50 was > 100 µM (inactive).

As to `O=C(NCC1CCN(Cc2ccc(Cl)cc2)CC1)C1CCCN(c2ncnc3c2nc2n3CCCCC2)C1` (stereo not drawn), the IC50 was > 100 µM (inactive).

With `CC(=O)c1ccc(OCC(O)CN2CCN(CCN3C(=O)c4cccc5cccc(c45)C3=O)CC2)cc1` (stereo not drawn), the IC50 is > 100 µM (inactive).

With `Cc1ccc(C)c(OCC(O)CN2CCN(CCN3C(=O)c4cccc5cccc(c45)C3=O)CC2)c1` (stereo not drawn), the IC50 was > 100 µM (inactive).

As to `CN(C)CCCN(C(=O)c1ccc(C(=O)c2ccccc2)cc1)c1nc2cc3c(cc2s1)OCCO3`, the IC50 is > 100 µM (inactive).

Take `COC(=O)C1=C(NC(=O)CCCCCN2C(=O)c3ccccc3C2=O)SC2CCCC12` (stereo not drawn): the IC50 was > 100 µM (inactive).

On to `CC1CCCCN1C(=O)C1CCN(c2ncnc3c2nc2n3CCCCC2)CC1` (stereo not drawn), for which the IC50 was > 100 µM (inactive).

With `CCN(Cc1ccccc1)S(=O)(=O)c1ccc(C(=O)N(CCCN(C)C)c2nc3cc(C)cc(C)c3s2)cc1`, the IC50 was > 100 µM (inactive).

Turning to `O=C(NCC1CCN(Cc2ccccc2F)CC1)C1CCCN(c2ncnc3c2nc2n3CCCCC2)C1` (stereo not drawn), the IC50 is > 100 µM (inactive).

`CCOc1cccc2sc(N(CCCN(C)C)C(=O)c3ccc(S(=O)(=O)N(CC)Cc4ccccc4)cc3)nc12`: the IC50 was > 100 µM (inactive).

`COc1cc2nc(N(CCCN(C)C)C(=O)c3ccc(S(=O)(=O)N4CCc5ccccc5C4)cc3)sc2cc1OC`: the IC50 was > 100 µM (inactive).

Regarding `COc1cccc2sc(N(CCCN(C)C)C(=O)c3ccc(S(=O)(=O)N4CCc5ccccc5C4)cc3)nc12`, the IC50 is > 100 µM (inactive).

On to `Cc1[nH]c2c(Cl)c(Cl)ccc2c1CCNC(=O)CCCCCN1C(=O)c2ccccc2C1=O`, for which the IC50 was > 100 µM (inactive).

With `O=C(C1CCN(c2ncnc3c2nc2n3CCCCC2)CC1)N1CCN(c2ccccc2)CC1`, the IC50 is > 100 µM (inactive).

On to `Cc1ccc(OCC(O)CN2CCN(CCN3C(=O)c4cccc5cccc(c45)C3=O)CC2)c(C)c1` (stereo not drawn), for which the IC50 was > 100 µM (inactive).

In the case of `O=C(C1CCN(c2ncnc3c2nc2n3CCCCC2)CC1)N1CCOCC1`, the IC50 is > 100 µM (inactive).

On to `COc1ccc(CCNC(=O)CCCCCN2C(=O)c3ccccc3C2=O)cc1OC`, for which the IC50 is > 100 µM (inactive).

For the compound `O=C(CCCn1c(=O)c2ccccc2n(Cc2ccc(Cl)cc2)c1=O)NC1CCN(Cc2ccccc2)CC1`, the IC50 was > 100 µM (inactive).

As for `COc1ccc(-c2oc3ncnc(N)c3c2-c2ccccc2)cc1`, the IC50 was > 100 µM (inactive).

As for `CN(C)CCCN(C(=O)c1ccc(S(=O)(=O)N(C)Cc2ccccc2)cc1)c1nc2cc3c(cc2s1)OCO3`, the IC50 was > 100 µM (inactive).

Turning to `CCc1ccc(OCC(O)CN2CCC(CN3C(=O)c4cccc5cccc(c45)C3=O)CC2)cc1` (stereo not drawn), the IC50 is > 100 µM (inactive).

Turning to `O=C(CCCCCN1C(=O)c2ccccc2C1=O)Nc1nc(C2CC2)cs1`, the IC50 is > 100 µM (inactive).

As for `COc1ccc2sc(N(CCCN(C)C)C(=O)c3ccc(S(=O)(=O)N4CCc5ccccc5C4)cc3)nc2c1`, the IC50 is > 100 µM (inactive).

Take `Cc1cc(C)c2sc(N(CCCN(C)C)C(=O)c3ccc(S(=O)(=O)N(C)C4CCCCC4)cc3)nc2c1`: the IC50 was > 100 µM (inactive).

As to `CC1CN(S(=O)(=O)c2ccc(NC(=O)CCCCCN3C(=O)c4ccccc4C3=O)cc2)CC(C)O1` (stereo not drawn), the IC50 was > 100 µM (inactive).

With `O=C(CCCn1c(=O)c2ccccc2n(Cc2ccccc2F)c1=O)NC1CCN(Cc2ccccc2)CC1`, the IC50 is > 100 µM (inactive).

For the compound `CN(C)CCCN(C(=O)c1ccc(S(=O)(=O)N2CCc3ccccc3C2)cc1)c1nc2ccc(F)cc2s1`, the IC50 is > 100 µM (inactive).

Turning to `CCOc1ccc(NC(=O)Cn2c(=O)n(CCCC(=O)NC3CCN(Cc4ccccc4)CC3)c(=O)c3ccccc32)cc1`, the IC50 was > 100 µM (inactive).

Regarding `O=C(CCCn1c(=O)c2ccccc2n(Cc2cccc([N+](=O)[O-])c2)c1=O)NC1CCN(Cc2ccccc2)CC1`, the IC50 is > 100 µM (inactive).

Consider `CCC1CCCCN1CCCNC(=O)C1CCN(c2ncnc3c2nc2n3CCCCC2)CC1` (stereo not drawn), for which the IC50 was > 100 µM (inactive).
